# Assay results from US10925856B2, “Methods and compositions involving bucindolol for the treatment of atrial fibrillation” (priority 2018, dated 2021).
# Columns and labels:
# clinical = conditions: human, in vivo
# Text: Based on FDA interactions and recommendations^63 the inventor sought to categorize CYP2D6 genetic variation in every patient in GENETIC-AF.
# CYP2D6 polymorphisms were identified using the xTAG® CYP2D6 Kit v3 manufactured by Luminex Corporation, with the assay performed by Esoterix, Boulder, Colo. on DNA extracted from whole blood by LabCorp's subsidiary Covance, of Salt Lake City, Utah See Table 41 in the Appendix for identified polymorphisms.
# Sparse sampling of bucindolol hydrochloride plasma concentrations for population pharmacokinetic analysis. The analysis plan for the substudy will be prepared separately prior to unblinding.
# NT-proBNP = test: Plasma NT-proBNP (electrochemiluminescence immunoassay)
# [1] = Systolic blood pressure and heart rate by scheduled visit; format: in vivo, human
# Text: Block is defined as the first of any of the following: 1) 3rd degree heart block (complete heart block); 2) any 2nd degree heart block with the presence of symptoms attributable to, and temporally correlated with the occurrence of heart block which include any of the following: Near-fainting or fainting (syncope)/Dizziness; Weakness or Fatigue; Shortness of breath; Chest pain; or 3) 2nd or 3rd degree heart block requiring implantation of a permanent pacemaker (with or without defibrillator). • Data source: • CVEVENT and AE eCRF forms. • Overall incidence and severity of treatment-emergent AEs/SAEs over time during the Total Study Period. Also events associated with device implantation. […] The AEs of special interest will be tabulated according to the following characteristics. • Development of treatment-emergent neoplastic conditions. • Progression or worsening of pre-study neoplastic conditions. • Progression or worsening of treatment-emergent neoplastic conditions. • Data source: • AE, NEOPLHX and NEOPLAS eCRF forms. • Clinical Chemistry and Hematology. • Visit collection: screen, start of follow-up Week 0 (protocol versions 1 and 2), Week 4 (protocol versions 3 and 4), Week 12 (protocol versions 3 and 4), Week 24, every 24 weeks during extension, end of treatment and end of study. […] Randomization Visit measurement prior to first dose will serve as the baseline. Will be analyzed at Week 0, 4, 12 and 24 visits as well as end of treatment and end of study. • Change from baseline to each analysis visit will be calculated and analyzed with descriptive statistics. • The numbers and percentages of patients with QTc increase from baseline exceeding 60 ms at any time point during the study. • Data source: • ECG eCRF form. • Vital signs and weight (data source: VITALS eCRF form). • Measured at every in-clinic visit. Randomization Visit measurement prior to first dose will serve as the baseline. Will be analyzed at Week 0, 4, 12 and 24 visits as well as end of treatment and end of study. • Change from baseline to each analysis visit will be calculated and analyzed with descriptive statistics. • Data source: • VITALS eCRF form. • Proportion of patients attaining target study drug dose during the Drug Titration Period. Will be calculated for all patients, those receiving β-blocker therapy prior to randomization and those not previously receiving β-blocker therapy. • Data Sources: • VISREC and DRUGLOG eCRF forms.
# [2] = Europe excluding Hungary (n = 48)
# [3] = change from baseline, Canada (n = 59)
# [4] = change from baseline, Entire Cohort (n = 267)
# [5] = change from baseline, Europe excluding Hungary (n = 48)
# [6] = change from baseline, Hungary (n = 33)
# [7] = change from baseline, U.S. (n = 127)
smiles,measurement,setting,value
"CC(C)(Cc1c[nH]c2ccccc12)NCC(O)COc1ccccc1C#N (stereo not drawn) [bucindolol, 2-(3-(1-(1H-indol-3-yl)-2-methylpropan-2-ylamino)-2-hydroxypropoxy)benzonitrile]",Plasma concentration in PMs relative to IMs,clinical; 12 weeks,5.7 fold
same,concentration at 12 weeks,clinical; Drug levels as measured in PMs,200 to 500 nM
same,"NT-proBNP, Week 4 Mean",NT-proBNP; Canada,859 pg/mL
same,"NT-proBNP, Week 4 Median",NT-proBNP; Canada,499 pg/mL
same,"NT-proBNP, ΔWeek 4 Mean ± SEM",NT-proBNP; Canada,-455 pg/mL
same,"NT-proBNP, ΔWeek 4 Median",NT-proBNP; Canada,-184 pg/mL
same,"NT-proBNP, Baseline Mean ± SD",NT-proBNP; Canada (n = 59),1314 ± 1503 pg/mL
same,"NT-proBNP, Baseline Median",NT-proBNP; Canada (n = 59),790 pg/mL
same,"NT-proBNP, Week 12 Mean ± SD",NT-proBNP; Canada (n = 59),674 ± 767 pg/mL
same,"NT-proBNP, Week 12 Median",NT-proBNP; Canada (n = 59),432 pg/mL
same,"NT-proBNP, Week 24 Mean ± SD",NT-proBNP; Canada (n = 59),831 ± 961 pg/mL
same,"NT-proBNP, Week 24 Median",NT-proBNP; Canada (n = 59),425 pg/mL
same,"NT-proBNP, Week 4 Mean",NT-proBNP; Entire Cohort,1196 pg/mL
same,"NT-proBNP, Week 4 Median",NT-proBNP; Entire Cohort,613 pg/mL
same,"NT-proBNP, ΔWeek 4 Mean ± SEM",NT-proBNP; Entire Cohort,-0.4 pg/mL
same,"NT-proBNP, ΔWeek 4 Median",NT-proBNP; Entire Cohort,-96 pg/mL
same,"NT-proBNP, Baseline Mean ± SD",NT-proBNP; Entire Cohort (n = 267),1159 ± 1306 pg/mL
same,"NT-proBNP, Baseline Median",NT-proBNP; Entire Cohort (n = 267),777 pg/mL
same,"NT-proBNP, Week 12 Mean ± SD",NT-proBNP; Entire Cohort (n = 267),1052 ± 1923 pg/mL
same,"NT-proBNP, Week 12 Median",NT-proBNP; Entire Cohort (n = 267),470 pg/mL
same,"NT-proBNP, Week 24 Mean ± SD",NT-proBNP; Entire Cohort (n = 267),1135 ± 1632 pg/mL
same,"NT-proBNP, Week 24 Median",NT-proBNP; Entire Cohort (n = 267),502 pg/mL
same,"NT-proBNP, Week 4 Mean",NT-proBNP; Europe excluding Hungary,756 pg/mL
same,"NT-proBNP, Week 4 Median",NT-proBNP; Europe excluding Hungary,431 pg/mL
same,"NT-proBNP, ΔWeek 4 Mean ± SEM",NT-proBNP; Europe excluding Hungary,-72 pg/mL
same,"NT-proBNP, ΔWeek 4 Median",NT-proBNP; Europe excluding Hungary,-108 pg/mL
same,"NT-proBNP, Baseline Mean ± SD",NT-proBNP; [2],893 ± 849 pg/mL
same,"NT-proBNP, Baseline Median",NT-proBNP; [2],600 pg/mL
same,"NT-proBNP, Week 12 Mean ± SD",NT-proBNP; [2],782 pg/mL
same,"NT-proBNP, Week 12 Median",NT-proBNP; [2],376 pg/mL
same,"NT-proBNP, Week 24 Mean ± SD",NT-proBNP; [2],1859 pg/mL
same,"NT-proBNP, Week 24 Median",NT-proBNP; [2],593 pg/mL
same,"NT-proBNP, Week 4 Mean",NT-proBNP; Hungary,1616 pg/mL
same,"NT-proBNP, Week 4 Median",NT-proBNP; Hungary,594 pg/mL
same,"NT-proBNP, ΔWeek 4 Mean ± SEM",NT-proBNP; Hungary,+461 pg/ml
same,"NT-proBNP, ΔWeek 4 Median",NT-proBNP; Hungary,-47 pg/mL
same,"NT-proBNP, Baseline Mean ± SD",NT-proBNP; Hungary (n = 33),989 ± 1428 pg/mL
same,"NT-proBNP, Baseline Median",NT-proBNP; Hungary (n = 33),567 pg/mL
same,"NT-proBNP, Week 12 Mean ± SD",NT-proBNP; Hungary (n = 33),1095 ± 1929 pg/mL
same,"NT-proBNP, Week 12 Median",NT-proBNP; Hungary (n = 33),446 pg/mL
same,"NT-proBNP, Week 24 Mean ± SD",NT-proBNP; Hungary (n = 33),1244 ± 2515 pg/mL
same,"NT-proBNP, Week 24 Median",NT-proBNP; Hungary (n = 33),244 pg/mL
same,"NT-proBNP, Week 4 Mean",NT-proBNP; U.S.,1501 pg/mL
same,"NT-proBNP, Week 4 Median",NT-proBNP; U.S.,796 pg/mL
same,"NT-proBNP, ΔWeek 4 Mean ± SEM",NT-proBNP; U.S.,+182 pg/ml
same,"NT-proBNP, ΔWeek 4 Median",NT-proBNP; U.S.,-75 pg/mL
same,"NT-proBNP, Baseline Mean ± SD",NT-proBNP; U.S. (n = 127),1245 ± 1332 pg/mL
same,"NT-proBNP, Baseline Median",NT-proBNP; U.S. (n = 127),904 pg/mL
same,"NT-proBNP, Week 12 Mean ± SD",NT-proBNP; U.S. (n = 127),1383 ± 2538 pg/mL
same,"NT-proBNP, Week 12 Median",NT-proBNP; U.S. (n = 127),561 pg/mL
same,"NT-proBNP, Week 24 Mean ± SD",NT-proBNP; U.S. (n = 127),1124 ± 1516 pg/mL
same,"NT-proBNP, Week 24 Median",NT-proBNP; U.S. (n = 127),653 pg/mL
same,NT-proBNP decrease,"NT-proBNP; Week 24, Canadian cohort",−39%
same,NT-proBNP decrease relative to that in the metoprolol group,"NT-proBNP; Week 24, Canadian cohort",~3 fold
same,"NT-proBNP, ΔWeek 12 Mean ± SEM",NT-proBNP; [3],-602 ± 232 pg/mL
same,"NT-proBNP, ΔWeek 12 Median",NT-proBNP; [3],-176 pg/mL
same,"NT-proBNP, ΔWeek 24 Mean ± SEM",NT-proBNP; [3],-442 ± 223 pg/mL
same,"NT-proBNP, ΔWeek 24 Median",NT-proBNP; [3],-271 pg/mL
same,"NT-proBNP, ΔWeek 12 Mean ± SEM",NT-proBNP; [4],-108 ± 133 pg/mL
same,"NT-proBNP, ΔWeek 12 Median",NT-proBNP; [4],-96 pg/mL
same,"NT-proBNP, ΔWeek 24 Mean ± SEM",NT-proBNP; [4],-92 ± 136 pg/mL
same,"NT-proBNP, ΔWeek 24 Median",NT-proBNP; [4],-197 pg/mL
same,"NT-proBNP, ΔWeek 12 Mean ± SEM",NT-proBNP; [5],-101 pg/mL
same,"NT-proBNP, ΔWeek 12 Median",NT-proBNP; [5],-92 pg/mL
same,"NT-proBNP, ΔWeek 24 Mean ± SEM",NT-proBNP; [5],+983 pg/ml
same,"NT-proBNP, ΔWeek 24 Median",NT-proBNP; [5],-48 pg/mL
same,"NT-proBNP, ΔWeek 12 Mean ± SEM",NT-proBNP; [6],+40 ± 170 pg/ml
same,"NT-proBNP, ΔWeek 12 Median",NT-proBNP; [6],-96 pg/mL
same,"NT-proBNP, ΔWeek 24 Mean ± SEM",NT-proBNP; [6],+41 ± 276 pg/ml
same,"NT-proBNP, ΔWeek 24 Median",NT-proBNP; [6],-176 pg/mL
same,"NT-proBNP, ΔWeek 12 Mean ± SEM",NT-proBNP; [7],+130 ± 262 pg/ml
same,"NT-proBNP, ΔWeek 12 Median",NT-proBNP; [7],-81 pg/mL
same,"NT-proBNP, ΔWeek 24 Mean ± SEM",NT-proBNP; [7],-163 ± 161 pg/mL
same,"NT-proBNP, ΔWeek 24 Median",NT-proBNP; [7],-315 pg/mL
same,"NT-proBNP, ΔWeek 4 Median","NT-proBNP; change from baseline, entire cohort",-96 pg/mL
same,NT-proBNP decrease,"NT-proBNP; end of the 24-week follow-up period, U.S.",33%
same,NT-proBNP decrease from baseline,"NT-proBNP; week 4, entire cohort",96 pg/mL
same,NT-proBNP decrease from baseline,"NT-proBNP; week 12, entire cohort",96 pg/mL
same,NT-proBNP decrease relative to baseline,"NT-proBNP; week 24, entire cohort",197 pg/mL
same,"Systolic Blood Pressure, Baseline Mean ± SEM",[1]; Baseline,124.7 ± 1.3 mmHg
same,"Heart Rate, Baseline Mean ± SEM","[1]; Baseline, by ECG",76.5 ± 1.5 bpm
same,"Systolic Blood Pressure, Mean ± SEM",[1]; Week 4 Change from Baseline,−0.3 ± 1.5 mmHg
same,"Heart Rate, Mean ± SEM","[1]; Week 4 Change from Baseline, by ECG",0.1 ± 1.6 bpm
same,"Systolic Blood Pressure, Mean ± SEM",[1]; Week 12 Change from Baseline,−0.5 ± 1.8 mmHg
same,"Heart Rate, Mean ± SEM","[1]; Week 12 Change from Baseline, by ECG",−1.5 ± 1.8 bpm
same,"Systolic Blood Pressure, Mean ± SEM",[1]; Week 24 Change from Baseline,−1.1 ± 1.5 mmHg
same,"Heart Rate, Mean ± SEM","[1]; Week 24 Change from Baseline, by ECG",0.1 ± 2.3 bpm
